Like-named read-outs stand apart in the source and are kept apart here.
How the values were obtained:
HCMV Merlin-GFP [1] = experiment: HCMV Merlin-GFP replication assay in HFFs; format: cell-based, human cytomegalovirus; details: Human betaherpesvirus 5, HFF, read-out: EC50 Merlin-GFP
Description: (§1) (i.e., 1 × TCID25/7d). Immediately after virus adsorption, the cells were treated with antiviral compounds or solvent control (DMSO). Infections were performed in biological quadruplicates, or as indicated for individual experiments. The cells were fixed by the addition of 150 µL 10% formalin/well 7 d p.i. (Merlin-GFP 14 d p.i.), and washed with PBS. For GFP or YFP quantitation, the Victor X4 microplate reader (PerkinElmer, Waltham, MA, USA) was primarily used, or as a very sensitive alternative, the ImageXpress® Pico device (Molecular Devices LLC, San Jose, CA, USA). Mean EC50 values of antiviral efficacy were calculated on the basis of three experimental replicates or as indicated (measurement of fluorescence values in quadruplicate), and percentage values were provided relative to the solvent control (DMSO).

HCMV TB40-YFP = HCMV TB40-YFP replication assay in U373 cells; format: cell-based, human cytomegalovirus; details: Human betaherpesvirus 5, U373 MG, read-out: EC50 TB40-YFP
Description: as §1

HCMV Merlin-GFP [2] = experiment: HCMV Merlin-GFP replication assay in U373 cells; format: cell-based, human cytomegalovirus; details: Human betaherpesvirus 5, U373 MG, read-out: EC50 Merlin-GFP
Description: as §1

[3] = Neutral Red uptake cell viability assay in mock-infected U373 cells; format: cell-based; details: human, read-out: CC50 Mock-inf.
Description: (§2) To address cell viability after compound treatment, a NR uptake assay was performed. Uninfected cells were seeded at equal numbers as for antiviral replication assays and treated with compounds or solvent control. The treatment was performed for HFFs (7 d), U373 (14 d), A549 (3 d), J-Jhan (14 d), and non-dox-induced iSLK.219 cells (3 d). At the end of the treatment period, 40 µg/mL of Neutral Red (NR) was added and incubated for 2–4 h at 37 °C, before the NR-containing supernatant was removed. Cells were destained using a solution containing 50% ethanol, 1% acetic acid, and 49% water. NR fluorescence was quantified using the Victor X4 microplate reader (PerkinElmer, Waltham, MA, USA) (560/630 nm). For the AB cell viability assay, which was also used to quantify virus-induced cytopathogenicity (particularly in the case of GPCMV in GPEFs), cells were seeded at equal numbers as for antiviral replication assays and incubated with a medium containing 25 ng/mL AB (resazurin; Ann Arbor, MI, USA), incubated for 6 h at 37 °C, and used for measurement identical with NR.

ChCMV strain Herberling = experiment: ChCMV replication assay in HFFs (immunofluorescence); format: cell-based, chimpanzee cytomegalovirus; details: in Pan troglodytes, n = 2
Text: (§3) Similarly, 2 × 10^4 primary embryonic guinea pig fibroblasts GPEFs/96-well, or 1.35 × 10^4 HFFs/96-well, or 2 × 10^4 rat REFs/96-well, or 2 × 10^4 murine MEFs/96-well, were cultivated for infection with GPCMV-GFP, RhCMV-GFP, ChCMV, RCMV-mCherry, or MCMV-GFP, respectively (all approx. MOI of 0.01 referring to 1 × TCID25), and were used for the assessment of antiviral drug activity. To this end, cells were fixed 7 d p.i. (RCMV-mCherry 4 d p.i.), before GFP or mCherry expression was quantified using the Victor X4 microplate reader, or other viral replication markers were measured as explained for the individual experiments. ChCMV replication in HFFs was monitored and quantified by the use of Anti-Cytomegalovirus Antibody Alexa Fluor™ 488. For immunofluorescence staining with Anti-Cytomegalovirus Antibody Alexa Fluor™ 488 (Sigma Aldrich, St. Louis, MO, USA; solution in PBS with 1% FCS), the infected cells were fixed at 7 d p.i. with 10% formalin and permeabilized with 0.2% Triton-x-100. Cell nuclei were counterstained using Höchst dye to be measured using the ImageXpress Pico (Molecular Devices, LLC, San Jose, CA, USA). Mean EC50 values of antiviral efficacy were calculated on the basis of three experimental replicates or as indicated (measurement of fluorescence values in quadruplicate), and percentage values were provided relative to the solvent control (DMSO).

MCMV-GFP = MCMV-GFP replication assay in MEFs; format: cell-based, murine cytomegalovirus; details: Murid betaherpesvirus 1, read-out: EC50 MCMV
Text: as §3

RCMV-mCherry = RCMV-mCherry replication assay in REFs; format: cell-based, rat cytomegalovirus; details: in Rattus norvegicus, read-out: EC50 RCMV
Text: as §3

GPCMV-GFP = GPCMV-GFP replication assay in GPEFs; format: cell-based, guinea pig cytomegalovirus; details: Caviid betaherpesvirus 2, read-out: EC50 GPCMV
Text: as §3
as §2, with “The treatment was performed for HFFs (7 d), U373 (14 d), A549 (3 d), J-Jhan (14 d), and non-dox-induced iSLK.219 cells (3 d). At the end of the treatment period, 40 µg/mL of Neutral Red (NR) was added and incubated for 2–4 h at 37 °C, before the NR-containing supernatant was removed. Cells were destained using a solution containing 50% ethanol, 1% acetic acid, and 49% water.” left out

[4] = mock-infected (uninfected) U373 cells

Row | Compound | EC50 (HCMV Merlin-GFP [1]) [nM] | EC50 (HCMV TB40-YFP) [nM] | EC50 (HCMV Merlin-GFP [2]) [nM] | CC50 at 14 d ([3]; U373) [nM] | EC50 (ChCMV strain Herberling) [nM] | EC50 (MCMV-GFP) [nM] | EC50 (RCMV-mCherry) [nM] | EC50 (GPCMV-GFP) [nM] | CC50 at 14 d [3, 4] [nM]
1 | Cn1ncc2cc(-c3cnc(N)c(Cl)c3N3CCC4(CCNC4=O)CC3)ccc21 [CCT-151921] | 1.27 ± 1.17 | 8.5 ± 11.1 | 14.7 ± 16.3 | > 100000 | 31 ± 18 | 2.65 ± 4.5 | 11.2 ± 22.7 | 19.4 ± 33.2 | –
2 | Cc1n[nH]c2ncc(C(=O)N3CCC[C@H]3c3ccc(Cl)cc3)cc12 [MSC-2530818] | 5.55 ± 5.63 | 12.3 ± 11.3 | 4.47 ± 4.4 | – | 21 ± 26.5 | 1.8 ± 1.99 | 4.87 ± 4.67 | 4.48 ± 4.84 | 87000 ± 6000
3 | CN(C)C(=O)Cn1cc(-c2ccc(-c3cncc4ccccc34)cc2)cn1 [BI-1347] | 0.54 ± 0.99 | 19.3 ± 21 | 1.4 ± 1.37 | – | 11.6 ± 22.6 | 1.57 ± 1.71 | 1.08 ± 1.49 | 1.11 ± 2.37 | > 100000

Source: publication PMC11435438, “Cyclin-Dependent Kinase 8 Represents a Positive Regulator of Cytomegalovirus Replication and a Novel Host Target for Antiviral Strategies” (Pharmaceutics, 2024)
